Source: PubChem BioAssay (NCI)
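Test compounds were applied to cells in 96-well plates for 48 hours at 5 doses. GI50 marks 50% less growth. TGI denotes the concentration required for complete inhibition of growth.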

Tests used:
Experiment in all cases: DTP human tumour cell line panel, 48 h
LOX IMVI melanoma = test system: LOX IMVI melanoma
CAKI-1 renal = test system: CAKI-1 renal
U251 CNS = test system: U251 CNS
SK-MEL-28 melanoma = test system: SK-MEL-28 melanoma
SN12C renal = test system: SN12C renal
EKVX NSCLC = test system: EKVX NSCLC
KM12 colon = test system: KM12 colon
TK-10 renal = test system: TK-10 renal
NCI-H460 lung = test system: NCI-H460 lung
DU-145 prostate = test system: DU-145 prostate
T-47D breast = test system: T-47D breast
SR leukemia = test system: SR leukemia
UO-31 renal = test system: UO-31 renal
MALME-3M melanoma = test system: MALME-3M melanoma
HCT-116 colon = test system: HCT-116 colon
RXF 393 renal = test system: RXF 393 renal
OVCAR-3 ovarian = test system: OVCAR-3 ovarian
OVCAR-8 ovarian = test system: OVCAR-8 ovarian
SF-295 CNS = test system: SF-295 CNS
HOP-62 NSCLC = test system: HOP-62 NSCLC
RPMI-8226 leukemia = test system: RPMI-8226 leukemia
SK-MEL-2 melanoma = test system: SK-MEL-2 melanoma
UACC-62 melanoma = test system: UACC-62 melanoma
SNB-19 CNS = test system: SNB-19 CNS
SK-OV-3 ovarian = test system: SK-OV-3 ovarian
ACHN renal = test system: ACHN renal
COLO 205 colon = test system: COLO 205 colon
M14 melanoma = test system: M14 melanoma
HOP-92 NSCLC = test system: HOP-92 NSCLC
OVCAR-4 ovarian = test system: OVCAR-4 ovarian
IGROV1 ovarian = test system: IGROV1 ovarian
NCI/ADR-RES ovarian = test system: NCI/ADR-RES ovarian
HS 578T breast = test system: HS 578T breast
SW-620 colon = test system: SW-620 colon
SF-268 CNS = test system: SF-268 CNS
MDA-MB-231 breast = test system: MDA-MB-231 breast
OVCAR-5 ovarian = test system: OVCAR-5 ovarian
SNB-75 CNS = test system: SNB-75 CNS
HL-60(TB) leukemia = test system: HL-60(TB) leukemia
A549 NSCLC = test system: A549 NSCLC
786-0 renal = test system: 786-0 renal
PC-3 prostate = test system: PC-3 prostate
HCT-15 colon = test system: HCT-15 colon
UACC-257 melanoma = test system: UACC-257 melanoma
MCF7 breast = test system: MCF7 breast
A498 renal = test system: A498 renal
CCRF-CEM leukemia = test system: CCRF-CEM leukemia
HCC-2998 colon = test system: HCC-2998 colon
MDA-MB-435 = test system: MDA-MB-435
MOLT-4 leukemia = test system: MOLT-4 leukemia
BT-549 breast = test system: BT-549 breast
HT29 colon = test system: HT29 colon
NCI-H23 lung = test system: NCI-H23 lung
NCI-H226 lung = test system: NCI-H226 lung
NCI-H522 lung = test system: NCI-H522 lung
SF-539 CNS = test system: SF-539 CNS
SK-MEL-5 melanoma = test system: SK-MEL-5 melanoma

SMILES: Cc1ccc2cc3c(N)c4c(C)ccc(C)c4nc3nc2c1
- GI50 (LOX IMVI melanoma): 1650 nM
- TGI (LOX IMVI melanoma): 3.4 µM
- GI50 (CAKI-1 renal): 10.2 µM
- TGI (CAKI-1 renal): 22 µM
- GI50 (U251 CNS): 4.58 µM
- TGI (U251 CNS): 18.1 µM
- GI50 (SK-MEL-28 melanoma): 13.7 µM
- TGI (SK-MEL-28 melanoma): 28.5 µM
- GI50 (SN12C renal): 6.75 µM
- TGI (SN12C renal): 21 µM
- GI50 (EKVX NSCLC): 8.04 µM
- TGI (EKVX NSCLC): 21.4 µM
- GI50 (KM12 colon): 2120 nM
- TGI (KM12 colon): 16.9 µM
- GI50 (TK-10 renal): 12.2 µM
- TGI (TK-10 renal): 25.5 µM
- GI50 (NCI-H460 lung): 1840 nM
- TGI (NCI-H460 lung): 3.77 µM
- GI50 (DU-145 prostate): 5.82 µM
- TGI (DU-145 prostate): 18.6 µM
- GI50 (T-47D breast): 2140 nM
- TGI (T-47D breast): 6.1 µM
- GI50 (SR leukemia): 2300 nM
- TGI (SR leukemia): 7.33 µM
- GI50 (UO-31 renal): 3.6 µM
- TGI (UO-31 renal): 19.6 µM
- GI50 (MALME-3M melanoma): 17.7 µM
- TGI (MALME-3M melanoma): 36.1 µM
- GI50 (HCT-116 colon): 1680 nM
- TGI (HCT-116 colon): 3.27 µM
- GI50 (RXF 393 renal): 1800 nM
- TGI (RXF 393 renal): 3.62 µM
- GI50 (OVCAR-3 ovarian): 6.12 µM
- TGI (OVCAR-3 ovarian): 21.1 µM
- GI50 (OVCAR-8 ovarian): 5.64 µM
- TGI (OVCAR-8 ovarian): 23.5 µM
- GI50 (SF-295 CNS): 1660 nM
- TGI (SF-295 CNS): 3.05 µM
- GI50 (HOP-62 NSCLC): 9.79 µM
- TGI (HOP-62 NSCLC): 25.5 µM
- GI50 (RPMI-8226 leukemia): 2020 nM
- TGI (RPMI-8226 leukemia): 5.27 µM
- GI50 (SK-MEL-2 melanoma): 14 µM
- TGI (SK-MEL-2 melanoma): 29.3 µM
- GI50 (UACC-62 melanoma): 7.72 µM
- TGI (UACC-62 melanoma): 22 µM
- GI50 (SNB-19 CNS): 7.02 µM
- TGI (SNB-19 CNS): 23.8 µM
- GI50 (SK-OV-3 ovarian): 11.4 µM
- TGI (SK-OV-3 ovarian): 24 µM
- GI50 (ACHN renal): 2680 nM
- TGI (ACHN renal): 13.2 µM
- GI50 (COLO 205 colon): 5.77 µM
- TGI (COLO 205 colon): 20 µM
- GI50 (M14 melanoma): 12.4 µM
- TGI (M14 melanoma): 26.7 µM
- GI50 (HOP-92 NSCLC): 1870 nM
- TGI (HOP-92 NSCLC): 16.5 µM
- GI50 (OVCAR-4 ovarian): 3.79 µM
- TGI (OVCAR-4 ovarian): 14.8 µM
- GI50 (IGROV1 ovarian): 6.73 µM
- TGI (IGROV1 ovarian): 22.3 µM
- GI50 (NCI/ADR-RES ovarian): 2950 nM
- TGI (NCI/ADR-RES ovarian): 16.7 µM
- GI50 (HS 578T breast): 12.8 µM
- TGI (HS 578T breast): 34.5 µM
- GI50 (SW-620 colon): 2810 nM
- TGI (SW-620 colon): 15.3 µM
- GI50 (SF-268 CNS): 11.8 µM
- TGI (SF-268 CNS): 25.8 µM
- GI50 (MDA-MB-231 breast): 3.17 µM
- TGI (MDA-MB-231 breast): 20.4 µM
- GI50 (OVCAR-5 ovarian): 1990 nM
- TGI (OVCAR-5 ovarian): 5.05 µM
- GI50 (SNB-75 CNS): 5.97 µM
- TGI (SNB-75 CNS): 20.7 µM
- GI50 (HL-60(TB) leukemia): 18.7 µM
- TGI (HL-60(TB) leukemia): 40.8 µM
- GI50 (A549 NSCLC): 1850 nM
- TGI (A549 NSCLC): 3.44 µM
- GI50 (786-0 renal): 6.72 µM
- TGI (786-0 renal): 20.5 µM
- GI50 (PC-3 prostate): 6.89 µM
- TGI (PC-3 prostate): 21.6 µM
- GI50 (HCT-15 colon): 1330 nM
- TGI (HCT-15 colon): 10.3 µM
- GI50 (UACC-257 melanoma): 14.2 µM
- TGI (UACC-257 melanoma): 28.6 µM
- GI50 (MCF7 breast): 1440 nM
- TGI (MCF7 breast): 2980 nM
- GI50 (A498 renal): 11.9 µM
- TGI (A498 renal): 25.1 µM
- GI50 (CCRF-CEM leukemia): 4.04 µM
- TGI (CCRF-CEM leukemia): 36.8 µM
- GI50 (HCC-2998 colon): 4.26 µM
- TGI (HCC-2998 colon): 14.8 µM
- GI50 (MDA-MB-435): 10.9 µM
- TGI (MDA-MB-435): 23.4 µM
- GI50 (MOLT-4 leukemia): 3.49 µM
- TGI (MOLT-4 leukemia): 21.7 µM
- GI50 (BT-549 breast): 14.8 µM
- TGI (BT-549 breast): 29.7 µM
- GI50 (HT29 colon): 2890 nM
- TGI (HT29 colon): 12.9 µM
- GI50 (NCI-H23 lung): 11.6 µM
- TGI (NCI-H23 lung): 28.6 µM
- GI50 (NCI-H226 lung): 13.1 µM
- TGI (NCI-H226 lung): 29.5 µM
- GI50 (NCI-H522 lung): 3.74 µM
- TGI (NCI-H522 lung): 20.7 µM
- GI50 (SF-539 CNS): 7.97 µM
- TGI (SF-539 CNS): 23.1 µM
- GI50 (SK-MEL-5 melanoma): 8.14 µM
- TGI (SK-MEL-5 melanoma): 21 µM
